Results as given in patent US12492195B2, “Preparation method for and crystal form of 3-aryloxy-3-five-membered heteroaryl-propylamine compound” (Zhangzhou Pien Tze Huang Pharmaceutical Co., Ltd., priority 2020, dated 2025).

Assays:
TRPA1 = target: T1, TRPA1 (Mus musculus, UniProt Q8BLA8); assay: IonWorks Barracuda (IWB) automated patch clamp detection of TRPA1 inhibitory activity; format: cell-based
T1 construct: expressed in transfected cells
Method: IonWorks Barracuda (IWB) automated patch clamp detection was used as test method: HEK293 cells stably expressing TRPA1 were placed in the T175 culture flask with DMEM medium containing 15 μg/mL Blasticidin S HCl, 200 μg/mL Hygromycin B and 10% FBS, and cultured in an incubator in 5% CO2 at 37° C. When the cell density reached about 80%, the culture medium was removed, the residue was rinsed once with phosphate buffered saline (PBS) without calcium and magnesium. 3 mL of Trypsin was added to digest for 2 min, 7 mL of culture medium was added to terminate the digestion. The cells were collected to 15 mL centrifuge tube and centrifuged at 800 rpm for 3 min. After the supernatant was removed, the cells were added to appropriate volume of extracellular fluid for re-suspending, and the cell density was controlled at 2-3×10^6/mL for IWB experiment. The formulation of extracellular fluid (in mM) was 140 NaCl, 5 KCl, 1 MgCl2, 10 HEPES, 0.5 EGTA, 10 Glucose (pH 7.4); the formulation of intracellular fluid (in mM) was 140 CsCl, 10 HEPES, 5 EGTA, 0.1 CaCl2), 1 MgCl2 (pH 7.2). 28 mg/mL of amphotericin B was freshly prepared with DMSO on the day of experiment, and then final concentration of 0.1 mg/mL of that was prepared with intracellular fluid.
Population patch clamp (PPC) plate was used in IWB experiment. The entire detection process was automatically carried out by the instrument. […]
The record of data and the export of current amplitude measurement were carried out by IWB software (version 2.5.3, Molecular Devices Corporation. Union City, CA). No statistics was recorded for wells with sealing impedance lower than 20 MΩ. […] TRPA1 current amplitude was measured at ±100 mV. […] The dose-effect curve of compounds and IC50 were fitted and calculated by GraphPad Prism 5.02 (GraphPad Software, San Diego, CA).

HepG2 cell = assay: Cytotoxicity test (CCK-8), hepatotoxicity; format: cell-based; conditions: Homo sapiens, HepG2, 72 h
Method: (§1) HepG-2 and SH-SY5Y cells were prepared and placed in a 10 cm dish and cultured in a cell incubator in 5% CO2 at 37° C. Trypsin was used to digest and cells were re-suspended and counted. The cells were transferred to 96-well plate with 8000 cells in a well (100 μl/well). The plate was cultured in a cell incubator for 24 h in 5% CO2 at 37° C. A serial of gradient concentration dilutions of compound with 2-fold dilution were prepared, and the system was 100 μL/well. The supernatant of cell culture system on the first day in the 96-well plate was removed, and fresh-prepared drug concentration system was added into culture plate wells containing cultured cells (duplicate wells were set). The cells were cultured in a cell incubator in 5% CO2 at 37° C. for 72 h. After the cell culture was completed, the supernatant of cell culture system was removed from 96-well plate, 100 μl of detection solution containing 10% CCK-8 medium was added into each well, and the cells were cultured in a cell incubator in 5% CO2 at 37° C. for 1 h and then taken out after time was up. Microplate reader was used to measure the absorbance at 450 nm. Data was processed to calculate cytotoxicity, and IC50 was calculated by GraphPad Prism. The cytotoxicity calculation formula was as follows: Cytotoxicity (%)=[A(0 Dosing)−A(Dosing)]/[A(0 Dosing)-A (Control)]×100 • A (Dosing): the absorbance of wells containing cells, CCK-8 solution and drug solution. • A (Control): the absorbance of wells containing medium and CCK-8 solution and without cells. • A (0 Dosing): the absorbance of wells containing cells and CCK-8 solution and without drug solution. Experimental Result

SH-SY5Y = assay: Cytotoxicity test (CCK-8), neurotoxicity; format: cell-based; conditions: Homo sapiens, 72 h
Method: as §1

C57BL/6 mice = assay: formalin pain model in mice; format: in vivo; conditions: for paw licking time: Phase II, 10-60 min; for analgesic effect (EDso) in phase II pain: intraperitoneal
Method: Before the start of experiment, the mice were allowed to adapt to the experimental environment for 72 h with free feeding and drinking water. The test drug was administrated by intraperitoneal injection at a dose of 20 mg/kg, and then the mice were placed in a transparent, ventilated plexiglass cylinder for 1 h, and then 20 μl of 4% formalin solution was injected into the left hind plantar of mice of each group by microinjector. The paw pain response of mice was real-time recorded by miniature camera. The frequency of lifting (1 score/time), shaking (2 score/time), and licking (3 score/time) the left paw and the time length of licking left paw were used as indicators of pain response, the cumulative scoring and licking time in two stages of 0-10 min (phase I, acute pain phase) and 10-60 min (phase II, inflammatory pain phase) were observed and recorded, and the statistical analysis was conducted.
100 male C57BL/6 mice (9-week aged) were randomly divided into 10 groups to evaluate analgesic activity of two compounds in the formalin pain model in mice, and each group had 10 mice. […] Before the start of experiment, the mice were allowed to adapt experimental environment for 72 h with free feeding and drinking water.
After administration, the mice were placed in a transparent, ventilated plexiglass cylinder, and 1 h later, 20 μl of 4% formalin solution was injected into the left hind plantar of mice in each group by micro-injector, and paw pain response in mice was recorded in real time by a mini-camera. The time length of licking left paw was used as an indicator of pain response, licking time in 0-10 min (phase I) and 10-60 min (phase II) was observed and recorded, and the statistical analysis was conducted. The half effective dose (EDso) of three compounds was calculated: EDso referred to the dose of the drug that decreased licking time by half as compared with the blank control group. The less the ED50 value was, the lower the effective analgesic dose of the compound was and the stronger the analgesic effect was.

T1 sequence (Q8BLA8 whole entry): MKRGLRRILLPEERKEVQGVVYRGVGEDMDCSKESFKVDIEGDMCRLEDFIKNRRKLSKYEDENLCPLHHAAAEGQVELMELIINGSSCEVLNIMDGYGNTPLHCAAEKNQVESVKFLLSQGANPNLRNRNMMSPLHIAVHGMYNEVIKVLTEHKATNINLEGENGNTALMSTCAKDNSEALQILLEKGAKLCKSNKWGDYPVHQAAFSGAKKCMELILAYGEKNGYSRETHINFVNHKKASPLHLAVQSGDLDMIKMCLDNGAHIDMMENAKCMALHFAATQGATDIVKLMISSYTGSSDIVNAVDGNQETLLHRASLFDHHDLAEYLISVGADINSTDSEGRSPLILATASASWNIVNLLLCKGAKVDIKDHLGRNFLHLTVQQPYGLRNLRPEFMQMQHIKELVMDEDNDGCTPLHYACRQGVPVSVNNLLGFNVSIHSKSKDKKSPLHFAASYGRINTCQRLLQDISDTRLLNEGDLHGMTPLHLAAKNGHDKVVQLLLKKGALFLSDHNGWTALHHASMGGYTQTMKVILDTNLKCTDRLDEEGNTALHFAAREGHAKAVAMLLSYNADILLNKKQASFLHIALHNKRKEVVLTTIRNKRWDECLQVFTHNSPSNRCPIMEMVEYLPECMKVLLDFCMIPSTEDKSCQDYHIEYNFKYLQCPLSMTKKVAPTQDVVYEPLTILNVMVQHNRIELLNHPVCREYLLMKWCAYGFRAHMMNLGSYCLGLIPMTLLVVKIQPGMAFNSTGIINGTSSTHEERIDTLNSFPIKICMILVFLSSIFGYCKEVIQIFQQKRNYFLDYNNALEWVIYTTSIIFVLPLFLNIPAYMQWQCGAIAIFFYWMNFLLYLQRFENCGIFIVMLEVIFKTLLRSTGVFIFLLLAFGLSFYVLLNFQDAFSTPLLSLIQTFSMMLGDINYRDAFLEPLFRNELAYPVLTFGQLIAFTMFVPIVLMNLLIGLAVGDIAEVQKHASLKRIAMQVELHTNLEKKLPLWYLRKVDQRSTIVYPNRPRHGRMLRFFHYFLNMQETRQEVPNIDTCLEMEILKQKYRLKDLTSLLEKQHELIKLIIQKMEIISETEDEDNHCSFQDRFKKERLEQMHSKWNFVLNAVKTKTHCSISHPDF

Row | Compound | activity ratio, IC50 of compound C1/IC50 of compound IC-10 (TRPA1) | IC50 (HepG2 cell) [µM] | IC50 (SH-SY5Y) [µM] | analgesic activity, licking time (C57BL/6 mice; 20 mg/kg intraperitoneal, phase I (0-10 min) and phase II (10-60 min), compared with saline group) | paw licking time (C57BL/6 mice; 0.1 mg/kg intraperitoneal) [s] | paw licking time (C57BL/6 mice; 0.5 mg/kg intraperitoneal) [s] | paw licking time (C57BL/6 mice; 1 mg/kg intraperitoneal) [s] | decrease of paw licking time as compared with blank vehicle (C57BL/6 mice; 1 mg/kg, phase II (10-60 min)) | paw licking time (C57BL/6 mice; 5 mg/kg intraperitoneal) [s] | paw licking time (C57BL/6 mice; 10 mg/kg intraperitoneal) [s] | analgesic effect (EDso) in phase II pain (C57BL/6 mice; phase II (10-60 min)) [mg/kg] | IC50 (TRPA1; HEK293 cells stably expressing TRPA1, AITC-induced current) [µM] | paw licking time (C57BL/6 mice; 20 mg/kg intraperitoneal) [s]
1 | CNCC[C@H](Oc1cccc2c1CCC2)c1cccs1 [IC-10] | about 2.5 times | 60 to 120 | 60 to 120 | almost completely inhibited licking paw behavior caused by pain | – | – | – | – | – | – | – | – | –
2 | CNCC[C@H](Oc1cccc2ccoc12)c1cccs1 [IC-1, (S)-3-(Benzofuran-7-yloxy)-N-methyl-3-(thiophen-2-yl)propan-1-amine] | – | 60 to 120 | 60 to 120 | – | 339.35 ± 27.90 | 368.16 ± 44.46 | 171.57 ± 39.69 | more than 50% | 158.02 ± 25.18 | 35.68 ± 11.77 | 2.22 | – | –
3 | CNCC[C@H](Oc1cccc2ccccc12)c1cccs1 [Duloxetine (S configuration), Duloxetine, reference compound] | – | 33 | 28 | – | – | – | 259.97 ± 64.44 | – | 230.49 ± 41.31 | 162.83 ± 36.27 | 8.00 | 10 to 20 | 72.27 ± 17.29
